Data reported in patent publication US11407771B2 (priority 2018, dated 2022).

What follows are compounds tested on MUC5AC mucin formation in IL-13-stimulated hTEC (assay: not given). Settings: not given.

Q: For `CC(=O)Nc1cc(Oc2ccc(NC(=O)Nc3cc(C4CC4)ccc3F)c(F)c2)ccn1` [Compound 397, N-(4-{4-[3-(5-Cyclopropyl-2-fluoro-pheny)-ureido]-3-fluoro-phenoxy}-pyridin-2-yl)-actamde], which MUC5AC production is on record?
A: marked attenuation

Q: `CC(=O)Nc1cc(CCc2cnc(NC(=O)Nc3cc(C4CC4)ccc3F)s2)ccn1` [Compound 398, N-[4-(2-{2-[3-(5-Cyclopropyl-2-fluoro-phenyl)-ureido]-thiazol-5-yl}-ethyl)-pyridin-2-yl]-acetamide] was tested. Which MUC5AC production did it give?
A: marked attenuation

Q: `CCOC(=O)Nc1cc(CCc2cnc(NC(=O)Nc3cc(C(C)(C)C)n[nH]3)s2)ccn1` [Compound 354, [4-(2-{2-[3-(5-tert-Butyl-2H-pyrazol-3-yl)-ureido]-thiazol-5-yl}-ethyl)-pyridin-2-yl]-carbamic acid ethyl ester] was tested. Which MUC5AC production did it give?
A: marked attenuation

Q: With `O=c1ncn2nc(Sc3ccc(F)cc3F)ccc2c1-c1c(Cl)cccc1Cl` [Compound 401, VX-745, reference compound] as the compound, how does the MUC5AC production read?
A: no significant inhibition

These compounds were tested against T1, MAPK13 (Homo sapiens (Human), UniProt O15264) (assay: not given). Settings: read-out: MAPK13 inhibition.
T1 sequence (O15264 whole entry): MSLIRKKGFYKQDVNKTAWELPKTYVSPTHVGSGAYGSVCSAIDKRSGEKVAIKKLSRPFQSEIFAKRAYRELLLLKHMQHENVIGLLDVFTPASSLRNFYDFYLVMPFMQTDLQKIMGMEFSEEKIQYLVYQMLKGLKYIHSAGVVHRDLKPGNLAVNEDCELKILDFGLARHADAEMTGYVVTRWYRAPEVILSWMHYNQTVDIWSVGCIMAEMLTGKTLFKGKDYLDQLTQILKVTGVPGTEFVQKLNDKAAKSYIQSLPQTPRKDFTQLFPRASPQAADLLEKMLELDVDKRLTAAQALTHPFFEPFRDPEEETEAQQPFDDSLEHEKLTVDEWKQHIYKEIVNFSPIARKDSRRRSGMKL

Q: Which IC50 does the source give for `CC(=O)Nc1cc(Oc2ccc(NC(=O)Nc3cc(C4CC4)ccc3F)c(F)c2)ccn1` [Compound 397, N-(4-{4-[3-(5-Cyclopropyl-2-fluoro-pheny)-ureido]-3-fluoro-phenoxy}-pyridin-2-yl)-actamde] here?
A: < 250 nM

Q: Which IC50 does the source give for `CC(=O)Nc1cc(CCc2cnc(NC(=O)Nc3cc(C4CC4)ccc3F)s2)ccn1` [Compound 398, N-[4-(2-{2-[3-(5-Cyclopropyl-2-fluoro-phenyl)-ureido]-thiazol-5-yl}-ethyl)-pyridin-2-yl]-acetamide] here?
A: < 250 nM

Q: For `CCOC(=O)Nc1cc(CCc2cnc(NC(=O)Nc3cc(C(C)(C)C)n[nH]3)s2)ccn1` [Compound 354, [4-(2-{2-[3-(5-tert-Butyl-2H-pyrazol-3-yl)-ureido]-thiazol-5-yl}-ethyl)-pyridin-2-yl]-carbamic acid ethyl ester], which IC50 is on record?
A: < 250 nM

Each compound was assayed against T1, MAPK13 (assay: biochemical). Settings: not given.

Q: With `CC(C)(C)c1cc(NC(=O)Nc2ncc(CCc3ccnc(N)c3)s2)[nH]n1` [Compound 367, 1-{5-[2-(2-Ainino-pyridin-4-yl)-ethyl]-thiazol-2-yl}-3-(5-tert-butyl-2H-pyrazol-3-yl)-urea] as the compound, how does the IC50 read?
A: 250 to 1000 nM

Q: Which IC50 does the source give for `CC(C)(C)c1cc(NC(=O)Nc2ncc(CCc3ccnc(N)c3)s2)no1` [Compound 365, 1-{5-[2-(2-Amine-pyridin-4-yl)-ethyl]-thiazol-2-yl}-3-(5-tert-butyl-isoxazol-3-yl)-urea] here?
A: 250 to 1000 nM

Q: `COC(=O)Nc1cc(CCc2ccc(NC(=O)Nc3cc(C(C)(C)C)nn3CC3CC3)c(F)c2)ccn1` [Compound 316, [4-(2-{4-[3-(5-tet-Butyl-2-cyclopropylmethyl-2H-pyrazol-3-yl)-ureido]-3-fluoro-phenyl}-ethyl)-pyridin-2-yl]-carbamic acid methyl ester] was tested. Which IC50 did it give?
A: 250 to 1000 nM

Q: `CC(=O)Nc1cc(COc2ccc(NC(=O)Nc3cc(C(C)(C)C)ccc3Cl)c(F)c2)ccn1` [Compound 414, N-(4-{4-[3-(5-tert-Butyl-2-chloro-phenyl)-ureido]-3-fluoro-phenoxymethyl}-pyridin-2-yl)-acetamide] was tested. Which IC50 did it give?
A: 250 to 1000 nM

Q: With `CC(C)(C)c1cc(NC(=O)Nc2ncc(CCc3ccncc3)s2)on1` [Compound 386, 1-(3-tert-Butyl-isoxazol-5-yl)-3-[5-(2-pyridin-4-yl-ethyl)-thiazol-2-yl]-urea] as the compound, how does the IC50 read?
A: 250 to 1000 nM

Q: `CC(C)(C)c1cc(NC(=O)Nc2ncc(CCc3ccncc3)s2)no1` [Compound 387, 1-(5-tert-Butyl-isoxazol-3-yl)-3-[5-(2-pyridin-4-yl-ethyl)-thiazol-2-yl]-urea] was tested. Which IC50 did it give?
A: 250 to 1000 nM

Q: For `Cn1nc(C(C)(C)C)cc1NC(=O)Nc1ccc(CCc2ccnc(NC(=O)C3CC3)c2)cc1F` [Compound 373, Cyclopropanecarboxylic acid [4-(2-{4-[3-(5-tert-butyl-2-methyl-2H-pyrazol-3-yl)-ureido]-3-fluoro-phenyl}-ethyl)-pyridin-2-yl]-amide], which IC50 is on record?
A: 250 to 1000 nM

Q: Which IC50 does the source give for `Cc1ccc(-n2nc(C(C)(C)CO)cc2NC(=O)Nc2ccc(Oc3ccncc3)cc2F)cc1` [Compound 279, 1-[2-Fluoro-4-(pyridin-4-yloxy)-phenyl]-3-[5-(2-hydroxy-1,1-dimethyl-ethyl)-2-p-tolyl-2H-pyrazol-3-yl]-urea] here?
A: 250 to 1000 nM

Q: `CC(=O)Nc1cc(COc2ccc(NC(=O)Nc3cc([Si](C)(C)C)ccc3F)c(F)c2)ccn1` [Compound 405, N-(4-{3-fluoro-4-[3-(2-fluoro-trimethylsilanyl-phenyl)-ureido]-phenoxymethyl}-pyridin-2-yl)-acetamide] was tested. Which IC50 did it give?
A: 250 to 1000 nM

Q: For `Cc1ccc(-n2nc(C(C)(C)C)cc2NC(=O)Nc2ncc(CCc3ccnc(NC(=O)OCc4ccccc4)c3)s2)cc1` [Compound 277, [4-(2-{2-[3-(5-tert-Butyl-2-p-tolyl-2H-pyrazol-3-yl)-ureido]-thiazol-5-yl}-ethyl)-pyridin-2-yl]-carbamic acid benzyl ester], which IC50 is on record?
A: 250 to 1000 nM

Q: `COCC(=O)Nc1cc(Oc2ccc(NC(=O)Nc3cc(C4(C)COC4)nn3-c3ccc(C)cc3)c(F)c2)ccn1` [Compound 267, N-[4-[3-fluoro-4-[[5-(3-methyloxetan-3-yl)-2-(p-tolyl)pyrazol-3-yl]carbamoylamino]phenoxy]-2-pyridyl]-2-methoxy-acetamide] was tested. Which IC50 did it give?
A: < 250 nM

Q: With `CC(=O)Nc1cc(COc2ccc(NC(=O)Nc3cc(C(C)(C)C)nn3CC3CC3)c(F)c2)ccn1` [Compound 413, N-(4-{4-[3-(5-tert-Butyl-2-cyclopropylmethyl-2H-pyrazol-3-yl)-ureido]-3-fluoro-phenoxymethyl}-pyridin-2-yl)-acetamide] as the compound, how does the IC50 read?
A: 250 to 1000 nM

Q: `CC(=O)Nc1cc(Oc2ccc(NC(=O)Nc3cc(C(C)(C)C)nn3CC3CC3)c(F)c2)ccn1` [Compound 393, N-(4-{4-[3-(5-tert-Butyl-2-cyclopropylmethyl-2H-pyrazol-3-yl)-ureido]-3-fluoro-phenoxy}-pyridin-2-yl)-acetamide] was tested. Which IC50 did it give?
A: < 250 nM

Q: `Cc1ccc(-n2nc(C(C)(C)C)cc2NC(=O)Nc2ncc(CCc3ccncc3)s2)cc1` [Compound 270, 1-(5-tert-Butyl-2-p-tolyl-2H-pyrazol-3-yl)-3-[5-(2-pyridin-4-yl-ethyl)-thiazol-2-yl]-urea] was tested. Which IC50 did it give?
A: 250 to 1000 nM

Q: With `Cc1ccc(-n2nc(C3(C)COC3)cc2NC(=O)Nc2ncc(CCc3ccncc3)s2)cc1` [Compound 271] as the compound, how does the IC50 read?
A: 250 to 1000 nM

Q: With `Cc1ccc(-n2nc(C(C)(C)CO)cc2NC(=O)Nc2ccc(Oc3ccncc3)cc2)cc1` [Compound 280, 1-[5-(2-Hydroxy-1,1-dimethyl-ethyl)-2-p-tolyl-2H-pyrazol-3-yl]-3-[4-(pyridin-4-yloxy)-phenyl]-urea] as the compound, how does the IC50 read?
A: 250 to 1000 nM

Q: For `CC(=O)Nc1cc(CCc2ccc(NC(=O)Nc3cc(C(C)(C)C)nn3-c3ccc(F)cc3)c(F)c2)ccn1` [Compound 379, N-{4-[2-(4-{3-[5-tert-Butyl-2-(4-fluoro-phenyl)-2H-pyrazol-3-yl]-ureido}-3-fluoro-phenyl)-ethyl]-pyridin-2-yl}-acetamide], which IC50 is on record?
A: 250 to 1000 nM
